Measured values: patent US20230152304A1 (SHENZHEN MINDRAY BIO-MEDICAL ELECTRONICS CO., LTD., priority 2020, published 2023)

What was measured:
[1] = system: platelets; test: Induction of platelet aggregation in venous blood by inducers (aggregation rate, impedance channel PLT_I); format: cell-based; conditions: for time until platelet aggregation reached the maximum degree: after inducer was added, different concentrations
From the text: Platelet aggregation can be induced by a variety of substances, thereby leading to blood coagulation. In order to investigate the disaggregation effects of amino group-containing compounds on platelet aggregation induced by different factors, in this example, substances, which can induce platelet aggregation, in the blood coagulation test scheme were selected according to the existing platelet aggregation pathways, and a variety of platelet aggregation models were established. The substances included adenosine diphosphate (ADP), thrombin (THR), collagen (COL) and ristocetin (RIS). […] In addition, the amino group-containing compounds can also effectively disaggregate the platelets having different inducements and aggregation degrees in certain concentration ranges and time ranges.
Specifically, several samples of 1 ml of venous blood were taken, and ADP was added to each sample to make the final concentrations be 0.01 mM, 0.25 mM, 0.5 mM and 1 mM respectively. The blood containing aggregated platelets was tested by using a hematology analyzer. The features including numbers, sizes, etc., of various cell particles in the blood were obtained by means of an impedance channel and an optical channel in the hematology analyzer. Normal blood was collected into blood anticoagulant tubes, and then the number of platelet particles detected by the impedance channel in the hematology analyzer was obtained and recorded as (PLT_I). When platelet aggregation occurred, the volume of a particle of the aggregated platelets was much larger than the volume of a single platelet and therefore the accurate count cannot be achieved by means of a corresponding platelet recognition mechanism. As a result, the platelet count was lowered and recorded as PLT_I (aggregated). No amino group-containing compound was added to the diluent of the impedance channel, thus the impedance channel reflected the degree of platelet aggregation in this aggregation model. The platelet count before aggregation was recorded as PLT_I (unaggregated), the platelet count after aggregation was recorded as PLT_I (aggregated), and the aggregation rate=PLT_I (aggregated)/PLT_I (unaggregated). The number of platelet particles tested by means of the optical channel in the hematology analyzer was obtained and recorded as (PLT_O). […] The platelet count before aggregation was recorded as PLT_O (unaggregated), and the platelet count after aggregation was recorded as PLT_O (undisaggregated). […] On the basis of the above principle, the model was established, and the disaggregation effect of the amino group-containing compound was quantitatively determined.

[2] = pKa of the amino group of the compound; conditions: pKa
From the text: For the compound having a plurality of amino groups/imino groups, the pKa of amino group described herein refers to the first dissociation constant, that is, pKa of amino group or imino group which firstly dissociates hydrogen ion.

[3] = system: platelet aggregation induced by THR; test: Disaggregation over time of THR-induced platelet aggregation; format: cell-based; conditions: FIG. 8; 10 mmol/L, pH 9.5, THR 0.1-0.35 U
Description: (§1) Specifically, according to the method similar to Example 1, the amino group-containing compound (1-acetylguanidine) was added to a diluent to treat blood samples in which different concentrations of aggregation inducer were added. Then the samples were tested, in which the test was performed every 5 min after the treatment solution was added to each sample so as to obtain the change of disaggregation rates over time.
Similarly, FIG. 7 and FIG. 8 show curve graphs of platelet aggregation tests induced by THR at different concentrations. The substantially same method as the above-mentioned was used, except that ADP was replaced by THR. The concentrations of THR were 0.1 U, 0.15 U, 0.2 U, 0.23 U, 0.25 U, 0.28 U, 0.30 U and 0.35 U, respectively. […] This was because after a certain concentration of THR was added, soluble fibrinogen converted to […], causing blood coagulation, and platelets were also wrapped by […], resulting in a sharp increase in aggregation rate. […] However, a good disaggregation rate can be achieved when samples were tested immediately after treatment.

[4] = system: platelet aggregation induced by COL; test: Disaggregation over time of COL-induced platelet aggregation; format: cell-based; conditions: FIG. 10; 10 mmol/L, pH 9.5, COL 0.05-20 mM, except lowest concentration
Description: as §1
FIG. 9 and FIG. 10 show curve graphs of platelet aggregation tests induced by COL at different concentrations. The substantially same method as the above-mentioned was used, except that ADP was replaced by COL. The concentrations of COL were 0.05 mM, 0.1 mM, 0.5 mM, 1 mM, 5 mM, 10 mM and 20 mM, respectively.

[5] = system: platelet aggregation induced by RIS; test: Disaggregation over time of RIS-induced platelet aggregation; format: cell-based; conditions: FIG. 12; 10 mmol/L, pH 9.5, RIS 0.15-3 mM
Description: as §1
FIG. 11 and FIG. 12 show curve graphs of platelet aggregation tests induced by RIS at different concentrations. The substantially same method as the above-mentioned was used, except that ADP was replaced by RIS. The concentrations of RIS were 0.15 mM, 0.375 mM, 0.75 mM, 1.5 mM and 3 mM, respectively. […] In addition, the disaggregation effect of 1-acetylguanidine can reach the highest immediately for RIS at various concentrations, and remained relatively stable within 10 min. The rapid decrease in the disaggregation rate after 15 min was also because the blood in the samples was coagulated.

[6] = system: aggregated platelets induced by ADP; test: Platelet disaggregation rate of blood samples with ADP-induced platelet aggregation (hematology analyzer, PLT_O)
Description: The compounds in Table 1 above were respectively added to a diluent used for a hematology analyzer to prepare blood sample diluents. […] Each of the compounds in Table 1 (at a final concentration 0.01 mol/L) was added to the diluent separately, pH was adjusted to 14, and the osmotic pressure was adjusted to 200 mOsm/L to obtain the treatment solution.
The venous blood of a healthy subject was collected into blood anticoagulant tubes for later use. Two aliquot blood samples (1 ml/sample) were taken. The above-mentioned diluent was added to one of the samples, the resulting solution was mixed evenly, and then the platelet count was detected in a hematology analyzer (Mindray BC-6000Plus) and recorded as: PLT_O (unaggregated). The platelet aggregation inducer ADP (at a final concentration of 0.01 mmol/L) was added to the other sample, and the resulting solution was mixed evenly. Platelets were aggregated 5 min later, at this time the above-mentioned diluent was added, and then the blood containing the aggregated platelets was detected by the hematology analyzer to obtain the platelet count, which was recorded as: PLT_O (aggregated). Another 1 ml of blood sample was taken, the platelet aggregation inducer ADP (at a final concentration of 0.01 mmol/L) was added, and the resulting solution was mixed evenly. The above-mentioned treatment solution was added 5 min later, the resulting solution was mixed evenly, and then the platelet count of the treated blood was detected by the hematology analyzer and was recorded as: PLT_O (disaggregated).

ristocetin
time until platelet aggregation reached the maximum degree [1]: 15 to 20 min

Nc1ncnc2c1ncn2[C@@H]1O[C@H](COP(=O)(O)OP(=O)(O)O)[C@@H](O)[C@H]1O [ADP, adenosine diphosphate]
platelet aggregation achieved at most ([1]; FIG. 5, ADP 0.01 mM): about 35%
time until platelet aggregation reached the maximum degree [1]: ≤ 5 min

CC(=O)NC(=N)N [1-acetylguanidine]
pKa ([2]; Example 4): 8.33
pKa ([2]; Table 4): 8.33
pKa ([2]; Table 5): 8.3
time after which the disaggregation effect decreased significantly [3]: 1 min
time after which the disaggregation effect decreased significantly [4]: 4 to 8 min
time after which the disaggregation rate decreased rapidly [5]: 15 min
disaggregation rate ([6]; FIG. 3, ambient pH varied 7.0-10, after pH increase): 97.32%
disaggregation rate ([6]; FIG. 3, ambient pH varied 7.0-10, low end of pH range): 35.23%
disaggregation effect on platelet aggregation with various aggregation degrees ([6]; FIG. 6, 10 mmol/L, pH 9.5, ADP 0.01-1 mM): remarkable disaggregation effects
disaggregation effect ([6]; FIG. 14, 50 mmol/L (total for combination, equal parts), ADP 0.1 mmol/L): 62.14%
Platelet disaggregation rate ([6]; Table 4, pH 10.8, method of Example 1): 97.35%
disaggregation rate ([6]; Table 5, pH 9.5, method of Example 1): 97.11%

collagen
degree of platelet aggregation ([1]; FIG. 9, COL at various concentrations (0.05-20 mM)): ~100%
